Measured values published in patent US4663323A, “Tetrazole derivatives, anti-ulcer composition containing the same and method for treating ulcers” (Otsuka Pharmaceutical Co., Ltd., priority 1984, dated 1987).
Like-named read-outs stand apart in the source and are kept apart here.

What was measured:
[1] = tested on: gastric juice secretion; experiment: Shay rat pylorus ligation method (gastric juice secretion-inhibiting activity); assay type: in vivo, male Wistar rats; conditions: sc, 4 h, 100 mg/kg s.c., 30 min before pylorus ligation, measured 4 hours after ligation
Method: The pharmacological activities of the compouns (I) were tested by a Shay rat pylorus ligation method (cf. H. Shay et al: Gastroenterol., Vol. 5, page 43, 1945) which is the most popular method for testing of gastric juice secretion-inhibiting activity. The test was carried out by using male Wistar rats, weighing about 170 g and fasting for 24 hours.
Test compounds were administered 30 minutes before the pylorus ligation in a dose of 100 mg/kg in subcutaneous route, and the volume, total acidity and/or pepsin activity of the gastric juice were measured 4 hours after the ligation. As a control, a saline solution was administered instead of the test compound. The inhibitory ratio (%) of the test compounds were calculated when the inhibitory activities of the control were counted as zero (0).
(§1) In the table, the inhibitory ratio (%) was evaluated as follows: […]

[2] = Acute Toxicity; conditions: rat, in vivo, po, male Wistar rats
Method: The test compounds were orally administered to male Wistar rats, and the half lethal dose (LD50) was measured.

[3] = tested on: Stress Ulcer; experiment: Stress Ulcer; assay type: in vivo, male Wistar rats; conditions: oral, 1×10^-3 mole in 0.5% CMC, before restraint and water dipping at 23° C. for 7 hours
Method: After male Wistar rats weighing about 170 g was fasted for 24 hours, the rats were restrained in a stress cage and dipped in water bath at 23° C. till chest of the animals. After 7 hours, the rats were killed and the stomach was isolated. Into the isolated stomach 10% formalin (8 ml) was poured and settled. The stomach was cut open at the greater curvature, and the length of each ulcer on the membrane was measured. Sum of the length of all ulcers was shown as ulcer index (UI). The test compound was orally administered to the rats before restraint in a stress cage in the form of 0.5% CMC suspension in a concentration of 1×10^-3 mole. As a control, only the solvent (CMC solution) was administered likewise.
The inhibitory ratio (%) of stress ulcer of the test compounds was calculated by the following equation: [formula]
as §1

[4] = saline control = 0, read-out: Inhibitory ratio, Pepsin activity
[5] = saline control = 0, read-out: Inhibitory ratio, Total acidity
[6] = saline control = 0, read-out: Inhibitory ratio, Volume of gastric juice

Row | Compound | inhibition in vivo at 100 mg/kg [1, 4] | inhibition in vivo at 100 mg/kg [1, 5] | inhibition in vivo at 100 mg/kg [1, 6] | LD50 [2] | Inhibitory ratio of stress ulcer [3]
1 | CCN(C(=O)CCCCSc1nnnn1C)C1CCCCC1 [Compound 3, N-Ethyl-N-cyclohexyl-5-(1-methyl-1,2,3,4-tetrazol-5-yl)thio-valeramide] | 10 to 50% | 10 to 50% | > 50% | > 500 mg/kg | 
2 | CCN(CC)C(=O)CCCCc1nnnn1C1CCCCC1 [Compound 5, N,N-Diethyl-5-(1-cyclohexyl-1,2,3,4-tetrazol-5-yl)valeramide] | 10 to 50% | 10 to 50% | 10 to 50% | > 500 mg/kg | 
3 | Cn1nnnc1SCCCC(=O)NC1CCCCC1 [Compound 6, N-Cyclohexyl-4-(1-methyl-1,2,3,4-tetrazol-5-yl)thio-butyramide] | 10 to 50% | 10 to 50% | 10 to 50% | > 500 mg/kg | 
4 | CCN(C(=O)CCCSc1nnnn1C)C1CCCCC1O (stereo not shown) [Compound 8, N-Ethyl-N-(2-hydroxycyclohexyl)-4-(1-methyl-1,2,3,4-tetrazol-5-yl)thio-butyramide] | 10 to 50% | 10 to 50% | 10 to 50% | > 500 mg/kg | 
5 | CCN(CC)C(=O)CCSCc1nnnn1CC [Compound 14, N,N-Diethyl-3-(1-ethyl-1,2,3,4-tetrazol-5-yl)methylthio-propionamide] |  |  | 10 to 50% |  | ++ (more than 60%)
6 | CCCCn1nnnc1CSCCC(=O)NCC [Compound 15, N-Ethyl-3-(1-butyl-1,2,3,4-tetrazol-5-yl)-methylthio-propionamide] |  |  |  |  | ++ (more than 60%)
7 | CCN(CC)C(=O)CCCSCc1nnnn1CC [Compound 18, N,N-Diethyl-4-(1-ethyl-1,2,3,4-tetrazol-5-yl)methylthio-butyramide] |  |  |  |  | + (30 to less than 60%)
8 | CCN(C(=O)CCCSc1nnnn1C)C1CCCCCC1 [Compound 20, N-Ethyl-N-cycloheptyl-4-(1-methyl-1,2,3,4-tetrazol-5-yl)thio-butyramide] | < 10% | 10 to 50% | > 50% |  | 
9 | CC(C)N(C(=O)CCCSc1nnnn1C)C(C)C [Compound 21, N,N-Diisopropyl-4-(1-methyl-1,2,3,4-tetrazol-5-yl)thio-butyramide] | < 10% | 10 to 50% | > 50% |  | 
10 | Cn1nnnc1SCCCC(=O)N(Cc1ccccc1)Cc1ccccc1 [Compound 22, N,N-Dibenzyl-4-(1-methyl-1,2,3,4-tetrazol-5-yl)thio-butyramide] | < 10% | 10 to 50% | 10 to 50% |  | 
11 | CCN(C(=O)CCCCc1nnnn1C1CCCCC1)C1CCCCC1 [Compound 23, N-Ethyl-N-cyclohexyl-5-(1-cyclohexyl-1,2,3,4-tetrazol-5-yl)valeramide] | < 10% | 10 to 50% | 10 to 50% |  | + (30 to less than 60%)
12 | CC(C)N(C(=O)CCCSc1nnnn1C)C1CCCCC1 [Compound 24, N-Isopropyl-N-cyclohexyl-4-(1-methyl-1,2,3,4-tetrazol-5-yl)thio-butyramide] | < 10% | 10 to 50% | > 50% |  | 
13 | Cn1nnnc1SCCCC(=O)N1CCCCC1 [Compound 25, 1-Methyl-5-(3-piperidylcarbonylpropyl)thio-1,2,3,4-tetrazole] | 10 to 50% | 10 to 50% | 10 to 50% |  | 
14 | Cn1nnnc1SCCCC(=O)Nc1ccccn1 [Compound 27, N-(2-Pyridyl)-4-(1-methyl-1,2,3,4-tetrazol-5-yl)thio-butyramide] | 10 to 50% | 10 to 50% | 10 to 50% |  | 
15 | CCN(C(=O)CCCSc1nnnn1C)C1CCCC1 [Compound 29, N-Ethyl-N-cyclopentyl-4-(1-methyl-1,2,3,4-tetrazol-5-yl)thio-butyramide] | 10 to 50% | > 50% | > 50% |  | 
16 | CCN(CC1CCCCC1)C(=O)CCCSc1nnnn1C [Compound 30, N-Ethyl-N-cyclohexylmethyl-4-(1-methyl-1,2,3,4-tetrazol-5-yl)thio-butyramide] | 10 to 50% | 10 to 50% | > 50% |  | 
17 | CCN(C(=O)CCCSc1nnnn1-c1ccccc1)C1CCCCC1 [Compound 31, N-Ethyl-N-cyclohexyl-4-(1-phenyl-1,2,3,4-tetrazol-5-yl)thio-butyramide] | 10 to 50% | 10 to 50% | > 50% |  | 

Row | Compound | inhibition in vivo at 100 mg/kg [1, 4] | inhibition in vivo at 100 mg/kg [1, 5] | inhibition in vivo at 100 mg/kg [1, 6] | LD50 [2] | Inhibitory ratio of stress ulcer [3]
18 | CC(=O)N1CCN(C(=O)CCCSc2nnnn2C)CC1 [Compound 32, 1-Methyl-5-[3-(4-acetyl-1-piperazinylcarbonyl)propyl]thio-1,2,3,4-tetrazol] | 10 to 50% | 10 to 50% | 10 to 50% |  | 
19 | Cn1nnnc1SCCCC(=O)N1CCOCC1 [Compound 33, 1-Methyl-5-(3-morpholinocarbonylpropyl)thio-1,2,3,4-tetrazole] | 10 to 50% | 10 to 50% | 10 to 50% |  | 
20 | CCN(CC)C(=O)CCCCc1nnnn1C [Compound 34, N,N-Diethyl-5-(1-methyl-1,2,3,4-tetrazol-5-yl)valeramide] | 10 to 50% | 10 to 50% | 10 to 50% |  | + (30 to less than 60%)
21 | CCN(CC)C(=O)CCCCc1nnnn1-c1ccccc1 [Compound 35, N,N-Diethyl-5-(1-phenyl-1,2,3,4-tetrazol-5-yl)valeramide] | 10 to 50% | 10 to 50% | 10 to 50% |  | + (30 to less than 60%)
22 | CCN(C(=O)CCSCc1nnnn1CC)C1CCCCC1 [Compound 36, N-Ethyl-N-cyclohexyl-3-(1-ethyl-1,2,3,4-tetrazol-5-yl)methylthio-propionamide] |  |  | > 50% |  | 
23 | Cn1nnnc1SCCCC(=O)O [Compound 38, 4-(1-methyl-1,2,3,4-tetrazol-5-yl)thiobutyric acid] |  |  | 10 to 50% |  | 
24 | Cn1nnnc1SCCCC(=O)N(CCO)c1ccccc1 [Compound 40, N-(2-Hydroxyethyl)-N-phenyl-4-(1-methyl-1,2,3,4-tetrazol-5-yl)thio-butyramide] |  |  | 10 to 50% |  | 
25 | Cn1nnnc1SCCCC(=O)Nc1ccc(S(N)(=O)=O)cc1 [Compound 41, N-(4-Sulfamoylphenyl)-4-(1-methyl-1,2,3,4-tetrazol-5-yl)thio-butyramide] |  |  | 10 to 50% |  | 
26 | Cc1c(Cl)cccc1NC(=O)CCCSc1nnnn1C [Compound 42, N-(2-Methyl-3-chlorophenyl)-4-(1-methyl-1,2,3,4-tetrazol-5-yl)thio-butyramide] |  |  | 10 to 50% |  | 
27 | Cn1nnnc1SCCCC(=O)Nc1ccc([N+](=O)[O-])cc1 [Compound 43, N-(4-Nitrophenyl)-4-(1-methyl-1,2,3,4-tetrazol-5-yl)thio-butyramide] |  |  | 10 to 50% |  | 
28 | CCCCCCNC(=O)CCCCc1nnnn1-c1ccccc1 [Compound 48, N-(n-Hexyl)-5-(1-phenyl-1,2,3,4-tetrazol-5-yl)valeramide] |  |  |  |  | + (30 to less than 60%)
29 | CC(C)N(C(=O)CCCCc1nnnn1-c1ccccc1)C1CCCCC1 [Compound 50, N-Isopropyl-N-cyclohexyl-5-(1-phenyl-1,2,3,4-tetrazol-5-yl)valeramide] |  |  |  |  | ++ (more than 60%)
30 | CCN(C(=O)CCCCc1nnnn1C)C1CCCCC1 [Compound 51, N-Ethyl-N-cyclohexyl-5-(1-methyl-1,2,3,4-tetrazol-5-yl)valeramide] |  |  | 10 to 50% |  | + (30 to less than 60%)
31 | CCN(CC)C(=O)CCCCc1nnn[nH]1 [Compound 52, N,N-Diethyl-5-(1,2,3,4-tetrazol-5-yl)-valeramide] |  |  | 10 to 50% |  | + (30 to less than 60%)
32 | CCc1ccc(-n2nnnc2CSCCC(=O)O)cc1 [Compound 53, 3-[1-(4-Ethylphenyl)-1,2,3,4-tetrazol-5-yl]-methylthio-propionic acid] |  |  | 10 to 50% |  | 
33 | COC(=O)CCCCc1nnnn1C1CCCCC1 [Compound 54, Methyl 5-(1-cyclohexyl-1,2,3,4-tetrazol-5-yl)valerate] |  |  | 10 to 50% |  | 
